From patent EP4741386A1 (Jiangsu Yahong Meditech Co., Ltd., priority 2023, dated 2025)
pIC50: −log10 of the molar value.

Assays:
[1] = target: T1, Recombinant human His6-USP1/His6-UAF1 complex protein (Homo sapiens, UniProt O94782); assay: In vitro inhibitory activity against USP1 (Ubiquitin Rhodamine 110 fluorescence detection, 384-well plate); format: biochemical; details: Ub-Rho substrate, 1 hour pre-incubation, read after 30 minutes
T1 construct: His6; purchased R&D E-568-050
Outline: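 Fluorescence assay measuring inhibition of recombinant human His6-USP1/His6-UAF1 complex with Ubiquitin-Rhodamine 110 substrate. Compounds held as 50 mM stocks in 100% DMSO and dispensed by acoustic transfer into modified Tris assay buffer.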

MDA-MB-436 = assay: CTG experiment for cell viability (CellTiter-Glo, 96-well plate, 7 days); format: cell-based; details: Homo sapiens, MDA-MB-436, 168 h, MDA-MB-436 cells, 7 days culture with compound
Description: Test Example 2: CTG experiment for cell viability
• 1. Object: to screen USP1 inhibitors by a CTG assay, using a 96-well plate. • 2. Materials: • The cells used were MDA-MB-436 (manufacturer: Nanjing Cobioer Biotechnology Co., Ltd.) and cultured in DMEM medium, • CTG (CellTiter-Glo® Luminescent Cell Viability Assay kit) (Promega, Cat. No.: G7572), • 96-well plate (Corning, Cat. No.: 3610). • 3. Compounds: all compounds were dissolved in 100% DMSO to obtain 50 mM stock solutions. • 4. Experimental method: • ① Plating: The cells to be tested were spread into a 96-well plate at a certain density, with 200 µL per well, and 200 µL of cell medium was added to the blank wells. […] The cell plate with the compounds was placed in an incubator at 37°C, and further cultured for 7 days prior to detection. • ④ Assay: The substrate and the buffer of CTG kit were mixed evenly. The cell plate with the compounds in Step ③ was taken out from the incubator, and left at room temperature to equilibrate for 30 minutes. The medium containing the compounds was removed from the cell plate, 100 µL of PBS and 50 µL of CTG reagent were added to each well, shaken and mixed for 3 minutes, and then incubated for 10 minutes at room temperature. The plate was read by a BIotek microplate-reader, with a parameter set to 567 CPM. • 5. Curve fitting
It was the same as that for the enzyme.

T1 sequence (O94782 whole entry): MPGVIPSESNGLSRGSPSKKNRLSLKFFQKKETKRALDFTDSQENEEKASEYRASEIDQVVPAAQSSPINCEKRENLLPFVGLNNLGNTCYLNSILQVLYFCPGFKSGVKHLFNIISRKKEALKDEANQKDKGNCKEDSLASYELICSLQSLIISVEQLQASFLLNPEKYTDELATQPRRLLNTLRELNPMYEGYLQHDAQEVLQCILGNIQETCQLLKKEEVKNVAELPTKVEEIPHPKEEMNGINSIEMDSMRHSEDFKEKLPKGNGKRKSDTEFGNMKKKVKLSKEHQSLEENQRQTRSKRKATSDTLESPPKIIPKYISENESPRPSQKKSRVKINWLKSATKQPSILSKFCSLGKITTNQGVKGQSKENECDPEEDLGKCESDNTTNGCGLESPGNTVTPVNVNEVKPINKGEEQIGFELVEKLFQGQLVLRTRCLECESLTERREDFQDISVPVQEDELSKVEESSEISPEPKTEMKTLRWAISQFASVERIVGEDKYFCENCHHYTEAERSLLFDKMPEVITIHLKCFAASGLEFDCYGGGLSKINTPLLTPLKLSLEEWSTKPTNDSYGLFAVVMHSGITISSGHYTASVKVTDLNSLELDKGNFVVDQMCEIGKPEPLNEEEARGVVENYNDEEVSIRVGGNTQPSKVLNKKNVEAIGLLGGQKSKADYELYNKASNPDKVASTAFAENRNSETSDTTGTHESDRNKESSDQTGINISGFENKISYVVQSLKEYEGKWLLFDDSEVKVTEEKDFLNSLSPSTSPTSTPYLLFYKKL
T1 sequence (Q8TAF3 whole entry partner): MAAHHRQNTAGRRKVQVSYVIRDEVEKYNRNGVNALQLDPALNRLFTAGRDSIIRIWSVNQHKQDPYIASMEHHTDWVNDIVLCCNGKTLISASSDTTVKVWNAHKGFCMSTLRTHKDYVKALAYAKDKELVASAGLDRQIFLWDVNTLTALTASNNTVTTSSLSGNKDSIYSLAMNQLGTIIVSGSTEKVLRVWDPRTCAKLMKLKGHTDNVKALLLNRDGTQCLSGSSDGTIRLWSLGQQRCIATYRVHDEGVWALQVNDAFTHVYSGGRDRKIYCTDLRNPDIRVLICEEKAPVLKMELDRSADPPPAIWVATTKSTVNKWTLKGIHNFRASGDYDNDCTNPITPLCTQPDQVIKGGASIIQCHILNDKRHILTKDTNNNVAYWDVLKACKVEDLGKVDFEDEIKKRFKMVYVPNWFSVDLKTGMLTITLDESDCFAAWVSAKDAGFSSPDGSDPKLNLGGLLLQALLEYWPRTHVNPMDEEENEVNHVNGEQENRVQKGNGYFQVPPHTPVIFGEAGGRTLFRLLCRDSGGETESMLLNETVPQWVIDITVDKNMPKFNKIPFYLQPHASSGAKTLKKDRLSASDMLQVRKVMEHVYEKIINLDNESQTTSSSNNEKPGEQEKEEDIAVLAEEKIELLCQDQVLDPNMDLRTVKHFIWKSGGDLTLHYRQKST

| Structure (SMILES) | pIC50 [1] | pIC50 (MDA-MB-436) |
| --- | --- | --- |
| COc1cnc(-c2c(OC)ncnc2C2CC2)nc1N(C)Cc1ccc(-c2ccccn2)cc1 [Example 19, 4'-Cyclopropyl-5,6'-dimethoxy-N-methyl-N-(4-(pyridin-2-yl)benzyl)-[2,5'-bipyrimidin]-4-amine] | 7.62 | 8.92 |
| COc1ncnc(C2CC2)c1-c1ncc2c(n1)N(CC1CCN(c3nc(C(F)(F)F)cn3C)CC1)CCO2 [Example 20, 2-(4-Cyclopropyl-6-methoxypyrimidin-5-yl)-8-((1-(1-methyl-4-(trifluoromethyl)-1H-imidazol-2-yl)piperidin-4-yl)methyl)-7,8-dihydro-6H-pyrimido[5,4-b][1,4] oxazine] | 7.04 | 6.27 |
| COc1ncnc(C2CC2)c1-c1ncc2c(n1)N(C[C@H]1CC[C@H](c3nc(C(F)(F)F)cn3C)CC1)CCO2 [Example 22, 2-(4-Cyclopropyl-6-methoxypyrimidin-5-yl)-8-(((1r,4r)-4-(1-methyl-4-(trifluoromethyl)-1H-imidazol-2-yl)cyclohexyl)methyl)-7,8-dihydro-6H-pyrimido[5,4-b][1,4]oxazine] | 7.61 | 6.68 |
| COc1cnc(-c2ccccc2C(C)C)nc1NCC12CCC(c3ccc(C(F)(F)F)cn3)(CC1)CC2 [Example 23, 2-(2-Isopropylphenyl)-5-methoxy-N-((4-(5-(trifluoromethyl)pyridin-2-yl)bicyclo[2.2.2]octan-1-yl)methyl)pyrimidin-4-amine] | 7.48 | 7.48 |
| COc1cnc(-c2c(OC)ncnc2C2CC2)nc1NCc1ccc(-n2nc(C(F)(F)F)cc2C)cc1 [Example 26, 4'-Cyclopropyl-5,6'-dimethoxy-N-(4-(5-methyl-3-(trifluoromethyl)-1H-pyrazol-1-yl)benzyl)-[2,5'-bipyrimidin]-4-amine] | 8.34 | 9.05 |
| COc1cnc(-c2c(OC)ncnc2C2CC2)nc1NCC12CCC(c3ccc(C(F)(F)F)cn3)(CC1)CC2 [Example 28] | 7.48 | 7.25 |
| COc1ncnc(C2CC2)c1-c1nc(NCc2ccc(-c3nc(C(F)(F)F)cn3C)cc2)c2occc2n1 [Example 35, 2-(4-Cyclopropyl-6-methoxypyrimidin-5-yl)-N-(4-(1-methyl-4-(trifluoromethyl)-1H-imidazol-2-yl)benzyl)furo[3,2-d]pyrimidin-4-amine] | 8.02 | 7.35 |
| CC(C)c1ccccc1-c1ncc(C#N)c(NCc2ccc(-c3nc(C(F)(F)F)cn3C)cc2)n1 [Example 39, 2-(2-Isopropylphenyl)-4-((4-(1-methyl-4-(trifluoromethyl)-1H-imidazol-2-yl)benzyl)amino)pyrimidine-5-carbonitrile] | 8.55 | 7.24 |

More lines, now with the values ahead:

| pIC50 [1] | pIC50 (MDA-MB-436) | Structure (SMILES) |
| --- | --- | --- |
| 8.55 | 6.47 | CC(C)c1ccccc1-c1nc(NCc2ccc(-c3ccccn3)cc2)c2occc2n1 [Example 32, 2-(2-isopropylphenyl)-N-(4-(pyridin-2-yl)benzyl)furo [3,2-d] pyrimidin-4-amine] |
| 8.92 | 8.74 | CC(C)c1ccccc1-c1nc(NCc2ccc(-c3nc(C(F)(F)F)cn3C)cc2)c2occc2n1 [Example 33, 2-(2-Isopropylphenyl)-N-(4-(1-methyl-4-(trifluoromethyl)-1H-imidazol-2-yl)benzyl)furo[3,2-d]pyrimidin-4-amine] |
| 7.65 | 6.02 | CC(C)c1ccccc1-c1nc(NCc2ccc(-c3ccccn3)cc2)c2[nH]ccc2n1 [Example 36, 2-(2-Isopropylphenyl)-N-(4-(pyridin-2-yl)benzyl)-5H-pyrrolo[3,2-d]pyrimidin-4-amine] |
| 8.96 | 7.86 | CC(C)c1ccccc1-c1ncc(Cl)c(NCc2ccc(-c3nc(C(F)(F)F)cn3C)cc2)n1 [Example 38, 5-Chloro-2-(2-isopropylphenyl)-N-(4-(1-methyl-4-(trifluoromethyl)-1H-imidazol-2-yl)benzyl)pyrimidin-4-amine] |
